The text below walks through data of patent publication US5608091A, “Quinizarin compound, method for production thereof, and use therefor” (Nippon Shokubai Co., Ltd., priority 1993, dated 1997).

The nature of series [1]: Stability in storage of thermal transfer recorded images. To be noted: 50° C., 50 hours. The protocol:
The recorded images obtained as described above were left standing in an atmosphere kept at 50° C. for 50 hours and, after the standing, were examined to determine the presence or absence of change caused on the images owing to the standing.
Ink compositions were prepared, transfer sheets produced, and transfer recording carried out by following the procedure of Example 89 while using the dye shown in Table 11 instead. The recorded images were tested for lightfastness and then for stability in storage in the same manner as in Example 89.
Ink compositions were prepared, transfer sheets produced, and transfer recording carried out by following the procedure of Example 89 while using the dyes shown in Table 12 instead. The recorded images were tested for lightfastness and then for stability in storage in the same manner as in Example 89.

Series [2] is described as follows: Visible absorption spectrum (λmax, ε). Type of series: physicochemical. To be noted: in chloroform; for ε: at λ max, in M-1 cm-1 (unit assumed).
Series [3] can be described thus: Solubility in toluene and methyl ethyl ketone, three-point scale. Type of series: physicochemical. The source says: In these tables, the solubility is rated on the three-point scale, wherein Δ stands for a solubility of less than 1% by weight, .largecircle. for a solubility in the approximate range of 1 to 3% by weight, and .circleincircle. for a solubility of not less than 3% by weight.

The nature of another series: Color tone of the dye. Type of series: physicochemical. The settings on record: Tables 1-9.

Take `CCCCCCCCOc1c(Nc2cccc(C(=O)OCC)c2)c(Nc2cccc(C(=O)OCC)c2)c(F)c2c1C(=O)c1c(O)ccc(O)c1C2=O` [(156)]: the Stability in storage entry in series [1] is “Good”.

Take `CCCCOc1c(Nc2c(CC)ccc(Cl)c2CC)c(Nc2c(CC)ccc(Cl)c2CC)c(F)c2c1C(=O)c1c(O)ccc(O)c1C2=O` [(160)]: the Stability in storage result in series [1] is recorded as “Good”.

Consider `CCCCOc1c(Nc2c(C(C)C)cccc2C(C)C)c(Nc2c(C(C)C)cccc2C(C)C)c(F)c2c1C(=O)c1c(O)ccc(O)c1C2=O` [(159)], for which the Stability in storage result in series [1] is reported as “Good”.

With `CCCCOc1c(Nc2c(CC)cccc2CC)c(Nc2c(CC)cccc2CC)c(F)c2c1C(=O)c1c(O)ccc(O)c1C2=O` [(158)], in series [1], the Stability in storage entry is listed as “Good”.

On to `CCCCOc1c(Nc2c(C)cccc2C(=O)OCC)c(Nc2c(C)cccc2C(=O)OCC)c(F)c2c1C(=O)c1c(O)ccc(O)c1C2=O` [(162)], for which the Stability in storage entry in series [1] is reported as “Good”.

As to `CCCCCCCCOc1c(F)c2c(c(F)c1Nc1ccc(C(=O)OCC)cc1)C(=O)c1c(O)ccc(O)c1C2=O` [(33)], the Stability in storage entry in series [1] was “Good”.

In series [2], `CCCCNc1c(F)c2c(c(F)c1Nc1cccc(C(=O)OCC)c1)C(=O)c1c(O)ccc(O)c1C2=O` [(227)] gave a λ max of 661 nm and a ε of 21000. Moreover, in series [3], the “Solubility in methyl ethyl ketone” value is recorded as “.largecircle. (a solubility in the approximate range of 1 to 3% by weight)” and the Solubility in toluene result is given as “.largecircle. (a solubility in the approximate range of 1 to 3% by weight)”. Further, the Color tone result in “Color tone of the dye” is on record as “Cyan”.

In series [2], `CCOC(=O)c1cccc(Nc2c(F)c3c(c(F)c2Nc2cccc(C(=O)OCC)c2)C(=O)c2c(O)ccc(O)c2C3=O)c1` [(121)] displayed a λ max of 644 nm and a ε of 20100. In addition, in series [3], the “Solubility in methyl ethyl ketone” value is reported as “.largecircle. (a solubility in the approximate range of 1 to 3% by weight)” and the Solubility in toluene result is “.largecircle. (a solubility in the approximate range of 1 to 3% by weight)”. For the same compound, in “Color tone of the dye”, the Color tone entry is given as “Cyan”.

In series [2], `CCOC(=O)c1cccc(Nc2c(F)c(F)c3c(c2F)C(=O)c2c(O)ccc(O)c2C3=O)c1` [(4)] registered a λ max of 527 nm and a ε of 15300. In series [3], the “Solubility in methyl ethyl ketone” value is recorded as “.largecircle. (a solubility in the approximate range of 1 to 3% by weight)” and the Solubility in toluene result is “.largecircle. (a solubility in the approximate range of 1 to 3% by weight)”. Moreover, the Color tone result in the series “Color tone of the dye” was “Magenta”.

Regarding `COc1ccc(Nc2c(F)c(F)c3c(c2F)C(=O)c2c(O)ccc(O)c2C3=O)cc1` [(15)], in series [2], the λ max was found to be 542 nm and the ε worked out at 10200. In series [3], the “Solubility in methyl ethyl ketone” value is “.largecircle. (a solubility in the approximate range of 1 to 3% by weight)” and the Solubility in toluene result was “.largecircle. (a solubility in the approximate range of 1 to 3% by weight)”. Further, the Color tone entry in “Color tone of the dye” was “Magenta”.

Take `CCCCNc1c(F)c2c(c(F)c1Nc1ccc(OC)cc1)C(=O)c1c(O)ccc(O)c1C2=O` [(228)]: in series [2], the λ max is 666 nm and the ε was 22800. In addition, in series [3], the “Solubility in methyl ethyl ketone” value is “.largecircle. (a solubility in the approximate range of 1 to 3% by weight)” and the Solubility in toluene result is given as “.largecircle. (a solubility in the approximate range of 1 to 3% by weight)”. Besides, the Color tone entry in “Color tone of the dye” was “Cyan”.

In the case of `CCCCNc1c(F)c2c(c(NCCCC)c1NCCCC)C(=O)c1c(O)ccc(O)c1C2=O` [(248)], in series [2], the λ max turned out to be 614 nm and the ε was 14900. In addition, in series [3], the “Solubility in methyl ethyl ketone” value is listed as “.largecircle. (a solubility in the approximate range of 1 to 3% by weight)” and the Solubility in toluene entry was “.largecircle. (a solubility in the approximate range of 1 to 3% by weight)”. In “Color tone of the dye”, the Color tone entry is “Blue”.

In the case of `CCc1ccc(Cl)c(CC)c1Nc1c(F)c2c(c(F)c1Nc1c(CC)ccc(Cl)c1CC)C(=O)c1c(O)ccc(O)c1C2=O` [(141)], in series [1], the Stability in storage result is given as “Good”.

For the compound `CCCCCCCCOc1c(Nc2c(Cl)cccc2Cl)c(Nc2c(Cl)cccc2Cl)c(F)c2c1C(=O)c1c(O)ccc(O)c1C2=O` [(183)], the Stability in storage result in series [1] was “Good”.
